Experimental data: patent publication US5449814A, “Lignan analogues, methods of preparation thereof and anti-hyperlipemic agents” (Shionogi & Co., Ltd., priority 1991, dated 1995)
Like-named read-outs stand apart in the source and are kept apart here.

Columns and labels:
LDL = experiment: Inhibitory effect on oxidative modification of LDL (copper-induced, TBA reactive substances); type: biochemical, New Zealand albino rabbits; settings: rabbit LDL 0.2 mg protein/ml, 0.5 μM Cu^2+, 37° C., 24 hours; read-out: Inhibition of LDL oxidation IC50
Procedure: Inhibitory effect on oxidative modification of LDL
According to the method by Kita et al. (Proc. Natl. Acad. Sci., U.S.A, Vol. 84, 5928 (1987)), the experiment was proceeded as follows.
LDL was isolated from the blood of New Zealand albino rabbits fed with a diet containing 0.5% cholesterol for 3 weeks, and dissolved in phosphate-buffered physiological saline (final LDL concentration: 0.2 mg protein/ml). To this solution, each test compound in ethanol was added and then copper sulfate (final Cu^2+ concentration: 0.5 μM) was added thereto. The mixture was incubated at 37° C. for 24 hours.
After incubation, the content of lipid peroxides in each solution was determined as thiobarbituric acid reactive substances (TBA reactive substances). Concentration for 50% inhibition (IC50) was obtained from a linear regression curve of concentration of a compound versus % inhibition of oxidative modification of LDL. To quantify TBA reactive substances, proteins were removed from the solution after incubation, and the supernatant was examined for the content of TBA reactive substances by TBA method.

cholesterol in serum = experiment: Hypocholesterolemic effect in cholesterol-fed mice; type: in vivo, Male ICR mice; settings: Mus musculus, po, 168 h, diet 1% cholesterol and 0.5% sodium cholate with 0.12% test compound, 7 days
Procedure: Hypocholesterolemic effect
Male ICR mice weighing 30 to 40 g were allowed to access to a diet containing 1% cholesterol and 0.5% sodium cholate supplemented with 0.12% of a test compound (no test compound in control group) ad libitum for 7 days. Then, the blood was taken and total cholesterol in serum was determined by the method of Allain (Clin. Chem., Vol. 20, 470 (1974)).
Total amount of VLDL cholesterol and LDL cholesterol was obtained by subtracting HLD cholesterol from total cholesterol. HLD cholesterol was quantified by the method of Ash and Hentschel et al. (Clin. Chem., Vol. 24, 2180 (1978)).
Hypocholesterolemic effect of a test compound was evaluated based on % reduction in cholesterol calculated using the equation shown below.

[1] = serum, read-out: Total Chol. reduction (%)
[2] = total minus HDL cholesterol, read-out: (VLDL + LDL) Chol. reduction (%)

| Structure (SMILES) | IC50 (LDL) | inhibition in vivo at 0.12 % in diet (cholesterol in serum; [1]) | inhibition in vivo at 0.12 % in diet (cholesterol in serum; [2]) |
| --- | --- | --- | --- |
| CCC(CC)CC(=O)c1c(C(=O)OC)c(-c2ccc(OC)c(OC)c2)c2c(OC)c(OC)c(OC)cc2c1O [Example 1, 1-(3,4-dimethoxyphenyl)-3-(3-ethyl-1-oxopentyl)-4-hydroxy-2-methoxycarbonyl-6,7,8-trimethoxynaphthalene] | 400 nM | 35% | 72% |
| COC(=O)c1c(C(C)=O)c(O)c2cc(OC)c(OC)c(OC)c2c1-c1ccc(OC)c(OC)c1 [Example 2, 3-Acetyl-1-(3,4-dimethoxyphenyl)-4-hydroxy-2-methoxycarbonyl-6,7,8-trimethoxynaphthalene] | 1240 nM | 22% | 59% |
| COC(=O)c1c(C(=O)C(C)C)c(O)c2cc(OC)c(OC)c(OC)c2c1-c1ccc(OC)c(OC)c1 [Example 3, 1-(3,4-Dimethoxyphenyl)-4-hydroxy-2-methoxycarbonyl-3-(2-methyl-1-oxopropyl)-6,7,8-trimethoxynaphthalene] | 120 nM | 21% | 57% |
| CCC(CC)C(=O)c1c(C(=O)OC)c(-c2ccc(OC)c(OC)c2)c2c(OC)c(OC)c(OC)cc2c1O [Example 4, 1-(3,4-Dimethoxyphenyl)-3-(2-ethyl-1-oxobutyl)-4-hydroxy-2-methoxycarbonyl-6,7,8-trimethoxynaphthalene] | 650 nM | 28% | 78% |
| COC(=O)c1c(C(=O)C2CCCCC2)c(O)c2cc(OC)c(OC)c(OC)c2c1-c1ccc(OC)c(OC)c1 [Example 5, 3-Cyclohexanoyl-1-(3,4-dimethoxyphenyl)-4-hydroxy-2-methoxycarbonyl-6,7,8-trimethoxynaphthalene] | 460 nM | 22% | 61% |
| COC(=O)c1c(C(=O)c2ccccc2)c(O)c2cc(OC)c(OC)c(OC)c2c1-c1ccc(OC)c(OC)c1 [Example 6, 3-Benzoyl-1-(3,4-dimethoxyphenyl)-4-hydroxy-2-methoxycarbonyl-6,7,8-trimethoxynaphthalene] | 180 nM | 16% | 55% |
| COC(=O)c1c(C(=O)CC2CCCCC2)c(O)c2cc(OC)c(OC)c(OC)c2c1-c1ccc(OC)c(OC)c1 [Example 7, 3-(2-Cyclohexyl-1-oxoethyl)-1-(3,4-dimethoxyphenyl)-4-hydroxy-2-methoxycarbonyl-6,7,8-trimethoxynaphthalene] | 2580 nM | 23% | 59% |
| COC(=O)c1c(C(=O)Cc2ccccc2)c(O)c2cc(OC)c(OC)c(OC)c2c1-c1ccc(OC)c(OC)c1 [Example 8, 1-(3,4-Dimethoxyphenyl)-4-hydroxy-2-methoxycarbonyl-3-(2-phenyl-1-oxoethyl)-6,7,8-trimethoxynaphthalene] | 4670 nM | 17% | 50% |
| CCC(CC)CC(=O)c1c(C(=O)OC)c(-c2ccc(OC)c(OC)c2)c2sccc2c1O [Example 15, 7-(3,4-Dimethoxyphenyl)-5-(3-ethyl-1-oxopentyl)-4-hydroxy-6-(methoxycarbonyl)benzo[b]thiophene] | 7900 nM | 23% | 43% |
| CCC(=O)c1c(C(=O)OC)c(-c2ccc(OC)c(OC)c2)c2c(OC)c(OC)c(OC)cc2c1O [Example 16, 1-(3,4-Dimethoxyphenyl)-4-hydroxy-2-methoxycarbonyl-3-(1-oxopropyl)-6,7,8-trimethoxynaphthalene] | 1850 nM | 26% | 56% |
| CCC(CC)C(=O)c1c(C(=O)OC)c(-c2ccc(OC)c(OC)c2)c2cc3c(cc2c1O)OCO3 [Example 33, 1-(3,4-Dimethoxyphenyl)-3-(2-ethyl-1-oxobutyl)-4-hydroxy-2-methoxycarbonyl-6,7-(methylenedioxy)naphthalene] |  | 19% | 50% |
| COC(=O)c1c(C(=O)c2ccc(Cl)cc2)c(O)c2cc3c(cc2c1-c1ccc(OC)c(OC)c1)OCO3 [Example 34, 3-(4-Chlorobenzoyl)-1-(3,4-dimethoxyphenyl)-4-hydroxy-2-methoxycarbonyl-6,7-(methylenedioxy)naphthalene] |  | 23% | 53% |
| CCC(CC)CC(=O)c1c(C(=O)OC)c(-c2ccc3c(c2)OCCO3)c2c(OC)c(OC)c(OC)cc2c1O [Example 60, 1-[3,4-(Ethylenedioxy)phenyl]-3-(3-ethyl-1-oxopentyl)-4-hydroxy-2-methoxycarbonyl-6,7,8-trimethoxynaphthalene] |  | 6% | 33% |

Second part, led by results:

| IC50 (LDL) | Structure (SMILES) | inhibition in vivo at 0.12 % in diet (cholesterol in serum; [1]) | inhibition in vivo at 0.12 % in diet (cholesterol in serum; [2]) |
| --- | --- | --- | --- |
| 1000 nM | COC(=O)c1c(C(=O)c2cccc(C)c2)c(O)c2cc(OC)c(OC)c(OC)c2c1-c1ccc(OC)c(OC)c1 [Example 18, 1-(3,4-Dimethoxyphenyl)-4-hydroxy-2-methoxycarbonyl-3-(3-methylbenzoyl)-6,7,8-trimethoxynaphthalene] | 13% | 66% |
| 1050 nM | COC(=O)c1c(C(=O)c2ccc(C)cc2)c(O)c2cc(OC)c(OC)c(OC)c2c1-c1ccc(OC)c(OC)c1 [Example 19, 1-(3,4-Dimethoxyphenyl)-4-hydroxy-2-methoxycarbonyl-3-(4-methylbenzoyl)-6,7,8-trimethoxynaphthalene] | 11% | 58% |
| 2500 nM | COC(=O)c1c(C(=O)c2ccccc2OC)c(O)c2cc(OC)c(OC)c(OC)c2c1-c1ccc(OC)c(OC)c1 [Example 20, 1-(3,4-Dimethoxyphenyl)-4-hydroxy-3-(2-methoxybenzoyl)-2-methoxycarbonyl-6,7,8-trimethoxynaphthalene] | 14% | 63% |
| 820 nM | COC(=O)c1c(C(=O)c2ccc(OC)cc2)c(O)c2cc(OC)c(OC)c(OC)c2c1-c1ccc(OC)c(OC)c1 [Example 22, 1-(3,4-Dimethoxyphenyl)-4-hydroxy-3-(4-methoxybenzoyl)-2-methoxycarbonyl-6,7,8-trimethoxynaphthalene] | 12% | 60% |
| 1420 nM | COC(=O)c1c(C(=O)c2ccc(Cl)cc2)c(O)c2cc(OC)c(OC)c(OC)c2c1-c1ccc(OC)c(OC)c1 [Example 23, 3-(4-Chlorobenzoyl)-1-(3,4-dimethoxyphenyl)-4-hydroxy-2-methoxycarbonyl-6,7,8-trimethoxynaphthalene] | 28% | 74% |
| 980 nM | COC(=O)c1c(C(=O)c2ccc(OC)c(OC)c2)c(O)c2cc(OC)c(OC)c(OC)c2c1-c1ccc(OC)c(OC)c1 [Example 24, 3-(3,4-Dimethoxybenzoyl)-1-(3,4-dimethoxyphenyl)-4-hydroxy-2-methoxycarbonyl-6,7,8-trimethoxynaphthalene] | 11% | 54% |
| 2070 nM | COC(=O)c1c(C(=O)c2ccc3ccccc3c2)c(O)c2cc(OC)c(OC)c(OC)c2c1-c1ccc(OC)c(OC)c1 [Example 25, 1-(3,4-Dimethoxyphenyl)-4-hydroxy-2-methoxycarbonyl-3-(2-naphthoyl)-6,7,8-trimethoxynaphthalene] | 16% | 59% |
| 790 nM | COC(=O)c1c(C(=O)c2ccc(F)cc2)c(O)c2cc(OC)c(OC)c(OC)c2c1-c1ccc(OC)c(OC)c1 [Example 26, 1-(3,4-Dimethoxyphenyl)-3-(4-fluorobenzoyl)-4-hydroxy-2-methoxycarbonyl-6,7,8-trimethoxynaphthalene] | 10% | 54% |
| 1520 nM | COC(=O)c1c(C(=O)c2ccc(C(F)(F)F)cc2)c(O)c2cc(OC)c(OC)c(OC)c2c1-c1ccc(OC)c(OC)c1 [Example 28, 1-(3,4-Dimethoxyphenyl)-4-hydroxy-2-methoxycarbonyl-3-[4-(trifluoromethyl)benzoyl]-6,7,8-trimethoxynaphthalene] | 22% | 61% |
| 1380 nM | CCCc1ccc(C(=O)c2c(C(=O)OC)c(-c3ccc(OC)c(OC)c3)c3c(OC)c(OC)c(OC)cc3c2O)cc1 [Example 29, 1-(3,4-Dimethoxyphenyl)-4-hydroxy-2-methoxycarbonyl-3-[4-(1-propyl)benzoyl]-6,7,8-trimethoxynaphthalene] | 20% | 42% |
